Reference: patent publication US20250215039A1, “NUCLEOSIDES FOR TREATING CANCER” (PRIMEFOUR THERAPEUTICS, INC., priority 2022, published 2025)
Read-outs that look alike come from different tables or passages of the source.

System: cancer cell lines
Test: Cancer cell proliferation activity (CellTiterGlo, 72 h)
Type: cell-based
Conditions: 72 h, 72 h, read-out: IC50
Summary of the method: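 Cells seeded overnight at 37 °C, then dosed with compound at 0.1% final DMSO and incubated 72 h at 37 °C (5% or 10% CO2 by medium).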

CC[C@]1(CO)O[C@@H](n2cnc3c(N)nc(F)nc32)[C@H](O)[C@@H]1O [Cpd. No. 173, (2R,3S,4R,5R)-5-(6-amino-2-fluoro-9H-purin-9-yl)-2-ethyl-2-(hydroxymethyl)tetrahydrofuran-3,4-diol]
IC50 (5637 cell line (bladder)): 220 nM | IC50 (AS49 cell line (lung)): 240 nM | IC50 (CLS439 cell line (bladder)): 610 nM | IC50 (HS729 cell line (muscle)): 210 nM | IC50 (JAR cell line (placenta)): 50 nM | IC50 (Homo sapiens, 22Rv1, 72 h, 22RV1 cell line (prostate)): 220 nM | IC50 (Homo sapiens, 786-0, 72 h, 786O cell line (kidney)): 110 nM | IC50 (Homo sapiens, A204, 72 h, A204 cell line (muscle)): 70 nM | IC50 (Homo sapiens, A673, 72 h, A673 cell line (bone)): 570 nM | IC50 (Homo sapiens, A2780, 72 h, A2780 cell line (ovary)): 200 nM | IC50 (Homo sapiens, A-375, 72 h, A375 cell line (skin)): 140 nM | IC50 (Homo sapiens, A-431, 72 h, A431 cell line (skin)): 70 nM | IC50 (Homo sapiens, ACHN, ACHN cell line (kidney)): 280 nM | IC50 (Homo sapiens, ASPC1, 72 h, ASPC1 cell line (pancreas)): 50 nM | IC50 (Homo sapiens, BT-20, 72 h, BT20 cell line (breast)): 100 nM | IC50 (Homo sapiens, BXPC-3, 72 h, BXPC3 cell line (pancreas)): 210 nM | IC50 (Homo sapiens, C-33-A, C33A cell line (cervical)): 190 nM | IC50 (Homo sapiens, CAKI-1, 72 h, CAKI1 cell line (kidney)): 10 nM | IC50 (Homo sapiens, COLO 205, 72 h, COLO205 cell line (colon)): 260 nM | IC50 (Homo sapiens, COLO-678, 72 h, COLO678 cell line (colon)): 390 nM | IC50 (Homo sapiens, Ca-Ski, CASKI cell line (cervical)): 60 nM | IC50 (Homo sapiens, Caco-2, 72 h, CACO2 cell line (colon)): 280 nM | IC50 (Homo sapiens, Calu-6, 72 h, CALU6 cell line (lung)): 60 nM | IC50 (Homo sapiens, DLD-1, 72 h, DLD1 cell line (colon)): 260 nM | IC50 (Homo sapiens, DU-145, 72 h, DU145 cell line (prostate)): 20 nM | IC50 (Homo sapiens, EFO-21, 72 h, EFO21 cell line (ovary)): 130 nM | IC50 (Homo sapiens, EJ-28, 72 h, EJ28 cell line (bladder)): 90 nM | IC50 (Homo sapiens, Granta-519, 72 h, GRANTA-519 cell line (hematological)): 560 nM | IC50 (Homo sapiens, HCT-15, 72 h, HCT15 cell line (colon)): 300 nM | IC50 (Homo sapiens, HCT-116, 72 h, HCT116 cell line (colon)): 230 nM | IC50 (Homo sapiens, HEK293, 72 h, HEK293 cell line (kidney)): 140 nM | IC50 (Homo sapiens, HL-60, 72 h, HL-60 cell line (hematological)): 70 nM | IC50 (Homo sapiens, HT-29, 72 h, HT29 cell line (colon)): 160 nM | IC50 (Homo sapiens, HT-1080, 72 h, HT1080 cell line (connective tissue)): 720 nM | IC50 (Homo sapiens, HeLa, HELA cell line (cervical)): 110 nM | IC50 (Homo sapiens, HepG2, 72 h, HEPG2 cell line (liver)): 110 nM | IC50 (Homo sapiens, Hs-578T, HS578T cell line, breast): 90 nM | IC50 (Homo sapiens, IGROV-1, 72 h, IGROV1 cell line (ovary)): 50 nM | IC50 (Homo sapiens, IMR-90, 72 h, IMR90 cell line, lung): 150 nM | IC50 (Homo sapiens, J82, 72 h, J82 cell line (bladder)): 150 nM | IC50 (Homo sapiens, JEG-3, 72 h, JEG3 cell line (placenta)): 40 nM | IC50 (Homo sapiens, JIMT-1, 72 h, JIMT1 cell line (breast)): 20 nM | IC50 (Homo sapiens, K562, 72 h, K-562 cell line (hematological)): 500 nM | IC50 (Homo sapiens, Kasumi 1, 72 h, KASUMI-1 cell line (hematological)): 20 nM | IC50 (Homo sapiens, L-363, 72 h, L-363 cell line (hematological)): 40 nM | IC50 (Homo sapiens, LoVo, LOVO cell line (colon)): 40 nM | IC50 (Homo sapiens, MCF7, 72 h, MCF7 cell line (breast)): 2400 nM | IC50 (Homo sapiens, MDA-MB-231, 72 h, MDAMB231 cell line (breast)): 570 nM | IC50 (Homo sapiens, MDA-MB-435, 72 h, MDAMB435 cell line (skin)): 250 nM | IC50 (Homo sapiens, MDA-MB-436, 72 h, MDAMB436 cell line (breast)): 70 nM | IC50 (Homo sapiens, MDA-MB-468, 72 h, MDAMB468 cell line (breast)): 100 nM | IC50 (Homo sapiens, MG-63, 72 h, MG63 cell line (bone)): 2360 nM | IC50 (Homo sapiens, MHH-ES-1, 72 h, MHHES1 cell line (bone)): 120 nM | IC50 (Homo sapiens, MIA PaCa-2, 72 h, MIAPACA2 cell line (pancreas)): 2770 nM | IC50 (Homo sapiens, MINO, MINO cell line (hematological)): 30 nM | IC50 (Homo sapiens, MV4-11, 72 h, MV4-11 cell line (hematological)): 30 nM | IC50 (Homo sapiens, NCI-H23, 72 h, NCI-H23 cell line (lung)): 70 nM | IC50 (Homo sapiens, NCI-H82, 72 h, NCIH82 cell line (lung)): 70 nM | IC50 (Homo sapiens, NCI-H292, 72 h, NCIH292 cell line (lung)): 470 nM | IC50 (Homo sapiens, NCI-H460, 72 h, NCIH460 cell line (lung)): 150 nM | IC50 (Homo sapiens, OVCAR-3, 72 h, OVCAR3 cell line (ovary)): 80 nM | IC50 (Homo sapiens, OVCAR-4, 72 h, OVCAR4 cell line (ovary)): 130 nM | IC50 (Homo sapiens, PANC-1, 72 h, PANC1 cell line (pancreas)): 2820 nM | IC50 (Homo sapiens, PC-3, 72 h, PC3 cell line (prostate)): 130 nM | IC50 (Homo sapiens, PLC-PRF-5, 72 h, PLCPRF5 cell line (liver)): 630 nM | IC50 (Homo sapiens, Panc1005, 72 h, PANC1005 cell line (pancreas)): 130 nM | IC50 (Homo sapiens, RD, RD cell line (muscle)): 190 nM | IC50 (Homo sapiens, Ramos, RAMOS cell line (hematological)): 80 nM | IC50 (Homo sapiens, SAOS-2, 72 h, SAOS2 cell line (bone)): 100 nM | IC50 (Homo sapiens, SF-268, 72 h, SF268 cell line (brain)): 670 nM | IC50 (Homo sapiens, SF-295, 72 h, SF295 cell line (brain)): 440 nM | IC50 (Homo sapiens, SK-BR-3, 72 h, SKBR3 cell line (breast)): 10 nM | IC50 (Homo sapiens, SK-HEP1, 72 h, SKHEP1 cell line (liver)): 190 nM | IC50 (Homo sapiens, SK-LMS-1, 72 h, SKLMS1 cell line (uterus)): 90 nM | IC50 (Homo sapiens, SK-MEL-5, 72 h, SKMEL5 cell line, skin): 420 nM | IC50 (Homo sapiens, SK-MEL-28, 72 h, SKMEL28 cell line (skin)): 150 nM | IC50 (Homo sapiens, SK-N-AS, SKNAS cell line (brain)): 160 nM | IC50 (Homo sapiens, SK-N-SH, SKNSH cell line (brain)): 140 nM | IC50 (Homo sapiens, SK-OV-3, 72 h, SKOV3 cell line (ovary)): 100 nM | IC50 (Homo sapiens, SNB-75, 72 h, SNB75 cell line (brain)): 240 nM | IC50 (Homo sapiens, SU-DHL10, 72 h, SU-DHL-10 cell line (hematological)): 200 nM | IC50 (Homo sapiens, SU-DHL-6, 72 h, SU-DHL-6 cell line (hematological)): 50 nM | IC50 (Homo sapiens, SW-620, 72 h, SW620 cell line (colon)): 90 nM | IC50 (Homo sapiens, T-24, 72 h, T24 cell line (bladder)): 140 nM | IC50 (Homo sapiens, TE-671, 72 h, TE671 cell line (muscle)): 620 nM | IC50 (Homo sapiens, THP-1, 72 h, THP-1 cell line (hematological)): 980 nM | IC50 (Homo sapiens, U2OS, U2OS cell line (bone)): 80 nM | IC50 (Homo sapiens, U-87 MG, U87MG cell line (brain)): 380 nM | IC50 (Homo sapiens, UMUC3, 72 h, UMUC3 cell line (bladder)): 460 nM | IC50 (Homo sapiens, UO-31, 72 h, UO31 cell line (kidney)): 50 nM | IC50 (Homo sapiens, WSU-NHL, WSU-NHL cell line (hematological)): 40 nM | IC50 (MT-3, 72 h, MT3 cell line (breast)): 100 nM | IC50 (NCI-H358M, NCIH358M cell line (lung)): 150 nM | IC50 (PBMC, PBMC (hematological)): > 50000 nM | IC50 (RD-ES, RDES cell line (bone)): 60 nM
